We go through 24 molecules from patent US20240083857A1, “2-Methyl-Quinazolines” (Bayer Pharma Aktiengesellschaft, priority 2017, published 2024).

In general, IC50 refers to the concentration that inhibits the measured activity by half. What is called inhibition is the percentage by which the read-out fell short of the control.

The target in assay [1] is human SOS1 (nucleotide exchange of K-Ras^G12C) (Homo sapiens, UniProt Q07889). Description: Biochemical assay 2: K-Ras^G12C activation assay by hSOS1 at high GTP concentration (HTRF). The settings on record: high GTP; for IC50: read-out: Assay 2 (KRAS-Activation by SOS high GTP) activity expressed as IC50; for inhibition at 20 µM: read-out: Assay 2 (KRAS-Activation by SOS high GTP) activity expressed as % inhibition at 20 μM.

Assay [2] concerns the target human SOS1 (loading of human K-Ras^G12C-GDP with fluorescent GTP-analog) (Homo sapiens, UniProt Q07889). Nature of the assay: Biochemical assay 3: K-Ras^G12C activation assay by hSOS1 (HTRF). The settings on record: no GTP; for IC50: read-out: Assay 3 (KRAS-Activation by SOS no GTP) activity expressed as IC50; for inhibition at 20 µM: read-out: Assay 3 (KRAS-Activation by SOS no GTP) activity expressed as % inhibition at 20 μM. A general note: Time-resolved FRET reads energy transfer from a long-lived donor to a nearby acceptor.

Assay [3] addresses K-Ras^G12C : hSOS1 interaction (Homo sapiens, UniProt Q07889). Nature of the assay: Biochemical assay 1: K-Ras^G12C interaction assay with hSOS1 (HTRF). Conditions: for IC50: read-out: Assay 1 (KRAS-SOS Interaction) activity expressed as IC50; for inhibition at 20 µM: read-out: Assay 1 (KRAS-SOS Interaction) activity expressed as % inhibition at 20 μM. Type of assay: binding.

In the case of `COc1cc2nc(C)nc(N[C@@H](C)c3ccc(-c4ccc5c(c4)CCO5)s3)c2cc1OC` (racemic) [Example 174, N-{1-[5-(2,3-dihydro-1-benzofuran-5-yl)thiophen-2-yl]ethyl}-6,7-dimethoxy-2-methylquinazolin-4-amine], the IC50 is 9.28 µM in assay [1], 18.3 µM in assay [2] and 6.92 µM in assay [3].

As for `COc1cc2nc(C)nc(N[C@@H](C)c3ccc(-c4ccc5[nH]ccc5c4)s3)c2cc1OC` (racemic) [Example 152, N-{1-[5-(1H-indol-5-yl)thiophen-2-yl]ethyl}-6,7-dimethoxy-2-methylquinazolin-4-amine], the IC50 in assay [1] came out at 7.33 µM; in assay [2], 11.1 µM; in assay [3] it was 5.48 µM.

Regarding `COc1cc2nc(C)nc(N[C@H](C)c3cccc(/C=C/C4CCCCC4)c3)c2cc1OC` [Example 90, N-[(1R)-1-{3-[(E)-2-cyclohexylethenyl]phenyl}ethyl]-6,7-dimethoxy-2-methylquinazolin-4-amine], the inhibition at 20 µM was found to be 46% in assay [1] and 33% in assay [2]. The IC50 in assay [3] came out at 11 µM.

`COc1cc2nc(C)nc(N[C@H](C)c3cccc(-c4ccccc4OC(F)(F)F)c3)c2cc1OC` [Example 83, 6,7-dimethoxy-2-methyl-N-{(1R)-1-[2′-(trifluoromethoxy)biphenyl-3-yl]ethyl}quinazolin-4-amine]: the values for the concentration for half-maximal inhibition (IC50) in assay [1], in assay [2] and in assay [3] were 7.85 µM, 17.4 µM and 8.5 µM, respectively.

Turning to `COc1cc2nc(C)nc(NC(C)c3ccc(-c4ccccc4CNCC(=O)NCc4ccccc4)s3)c2cc1OC` (stereo not drawn) [Example 284, N-benzyl-2-[2-(5-{1-[(6,7-dimethoxy-2-methylquinazolin-4-yl)amino]ethyl}thiophen-2-yl)benzyl]glycinamide], the IC50 in assay [1] came to 0.879 µM; in assay [2], 0.889 µM; in assay [3], 1.06 µM.

For `CCOCc1ccccc1-c1ccc([C@H](C)Nc2nc(C)nc3cc(OC)c(OC)cc23)s1` (racemic) [Example 133, N-[1-{5-[2-(ethoxymethyl)phenyl]thiophen-2-yl}ethyl]-6,7-dimethoxy-2-methylquinazolin-4-amine], the concentration for half-maximal inhibition (IC50) came out at 4.03 µM in assay [1], 5.67 µM in assay [2] and 4.3 µM in assay [3].

In the case of `Cc1nc(N[C@H](C)c2ccc(F)cc2)c2cc(Br)ccc2n1` [Example 31, 6-bromo-N-[(1R)-1-(4-fluorophenyl)ethyl]-2-methylquinazolin-4-amine], the IC50 in assay [1] amounted to 9.51 µM; in assay [3], 8.59 µM. For the same molecule, in assay [2], the inhibition at 20 µM came out at 49%.

`COc1cc2nc(C)nc(N[C@H](C)c3cccc(-c4cccc(OCc5ccccc5)c4)c3)c2cc1OC` [Example 123, N-{(1R)-1-[3′-(benzyloxy)biphenyl-3-yl]ethyl}-6,7-dimethoxy-2-methylquinazolin-4-amine]: in assay [1], the IC50 amounted to 13.1 µM. In addition, the inhibition at 20 µM in assay [2] was found to be 42%; in assay [3] it was 52%.

Take `COCCNC(=O)CNCc1ccccc1-c1ccc(C(C)Nc2nc(C)nc3cc(OC)c(OC)cc23)s1` (stereo not drawn) [Example 283, 2-[2-(5-{1-[(6,7-dimethoxy-2-methylquinazolin-4-yl)amino]ethyl}thiophen-2-yl)benzyl]-N-(2-methoxyethyl)glycinamide]: the IC50 in assay [1] was found to be 0.371 µM; in assay [2], 0.344 µM; in assay [3], 0.418 µM.

`COc1cc2nc(C)nc(N[C@@H](C)c3ccc(-c4cccc5[nH]ccc45)s3)c2cc1OC` (racemic) [Example 171, N-{1-[5-(1H-indol-4-yl)thiophen-2-yl]ethyl}-6,7-dimethoxy-2-methylquinazolin-4-amine]: the IC50 in assay [1] stood at 3.37 µM; in assay [2] it was 7.18 µM; in assay [3], 5.59 µM.

Take `COc1cc2nc(C)nc(N[C@@H](C)c3ccc(-c4ccccc4C(=O)N(C)C)s3)c2cc1OC` (racemic) [Example 48, 2-(5-{1-[(6,7-dimethoxy-2-methylquinazolin-4-yl)amino]ethyl}thiophen-2-yl)-N,N-dimethylbenzamide]: the figures for the IC50 in assay [1], in assay [2] and in assay [3] were 3.27 µM, 4.52 µM and 2.12 µM, respectively.

Regarding `CCCOc1ccccc1-c1cccc([C@@H](C)Nc2nc(C)nc3cc(OC)c(OC)cc23)c1` [Example 102, 6,7-dimethoxy-2-methyl-N-[(1R)-1-(2′-propoxybiphenyl-3-yl)ethyl]quinazolin-4-amine], the IC50 in assay [1] was determined as 3.56 µM; in assay [2], 11.5 µM; in assay [3] it was 6.38 µM.

`COc1cc2nc(C)nc(N[C@H](C)c3cccc(-c4ccc5c(c4)OCCO5)c3)c2cc1OC` [Example 125, N-{(1R)-1-[3-(2,3-dihydro-1,4-benzodioxin-6-yl)phenyl]ethyl}-6,7-dimethoxy-2-methylquinazolin-4-amine]: the IC50 was found to be 1.09 µM in assay [1], 2.04 µM in assay [2] and 2.03 µM in assay [3].

Consider `COc1cc2nc(C)nc(N[C@H](C)c3cccc(-c4cnc5[nH]ccc5c4)c3)c2cc1OC` [Example 60, 6,7-dimethoxy-2-methyl-N-{(1R)-1-[3-(1H-pyrrolo[2,3-b]pyridin-5-yl)phenyl]ethyl}quinazolin-4-amine], for which the IC50 in assay [1] is 0.448 µM; in assay [2], 1.04 µM; in assay [3], 0.585 µM.

With `COc1cc2nc(C)nc(N[C@H](C)c3cccc(-c4ccc(N5CCOCC5)cc4)c3)c2cc1OC` [Example 79, 6,7-dimethoxy-2-methyl-N-{(1R)-1-[4′-(morpholin-4-yl)biphenyl-3-yl]ethyl}quinazolin-4-amine], the half-inhibitory concentration (IC50) is 0.937 µM in assay [1], 1.65 µM in assay [2] and 1.55 µM in assay [3].

As to `COc1cc2nc(C)nc(N[C@H](C)c3cccc(-c4cc(Cl)cc(Cl)c4)c3)c2cc1OC` [Example 124, N-[{1R)-1-(3′,5′-dichlorobiphenyl-3-yl)ethyl]-6,7-dimethoxy-2-methylquinazolin-4-amine], the IC50 was found to be 9.3 µM in assay [1] and 18.3 µM in assay [3]. In addition, in assay [2], the inhibition at 20 µM was 37%.

Regarding `COc1cc2nc(C)nc(N[C@H](C)c3cccc(-c4cccc(N5CCOCC5)c4)c3)c2cc1OC` [Example 80, 6,7-dimethoxy-2-methyl-N-{(1R)-1-[3′-(morpholin-4-yl)biphenyl-3-yl]ethyl}quinazolin-4-amine], the IC50 in assay [1] was determined as 0.711 µM; in assay [2], 1.12 µM; in assay [3] it was 0.721 µM.

Take `COc1cc2nc(C)nc(N[C@H](C)c3cccc(-c4cccc(NS(C)(=O)=O)c4)c3)c2cc1OC` [Example 118, N-(3′-{(1R)-1-[(6,7-dimethoxy-2-methylquinazolin-4-yl)amino]ethyl}biphenyl-3-yl)methanesulfonamide]: the IC50 is 0.481 µM in assay [1], 0.774 µM in assay [2] and 0.529 µM in assay [3].

With `COc1cc2nc(C)nc(N[C@@H](C)c3ccc(-c4ccccc4NC(C)=O)s3)c2cc1OC` (racemic) [Example 166, N-[2-(5-{1-[(6,7-dimethoxy-2-methylquinazolin-4-yl)amino]ethyl}thiophen-2-yl)phenyl]acetamide], the half-inhibitory concentration (IC50) is 3.68 µM in assay [1], 4.99 µM in assay [2] and 1.8 µM in assay [3].

For `COc1cc2nc(C)nc(N[C@@H](C)c3ccc(-c4cccc(N5CCOCC5)c4)s3)c2cc1OC` (stereo in doubt) [Example 44, 6,7-dimethoxy-2-methyl-N-[1-{5-[3-(morpholin-4-yl)phenyl]thiophen-2-yl}ethyl]quinazolin-4-amine], the figures for the inhibition at 20 µM in assay [1], in assay [2] and in assay [3] were 47%, 25% and 55%, respectively.

With `COc1cc2nc(C)nc(N[C@H](C)c3cccc(-c4cc5ccccc5n4C)c3)c2cc1OC` [Example 88, 6,7-dimethoxy-2-methyl-N-{(1R)-1-[3-(1-methyl-1H-indol-2-yl)phenyl]ethyl}quinazolin-4-amine], the values for the IC50 in assay [1], in assay [2] and in assay [3] were 2.56 µM, 6.18 µM and 3.56 µM, respectively.

As for `COc1cc2nc(C)nc(N[C@H](C)c3cccc(-c4ccc(CO)s4)c3)c2cc1OC` [Example 107, [5-(3-{(1R)-1-[(6,7-dimethoxy-2-methylquinazolin-4-yl)amino]ethyl}phenyl)thiophen-2-yl]methanol], the half-inhibitory concentration (IC50) in assay [1] is 0.467 µM; in assay [2], 0.438 µM; in assay [3], 0.319 µM.

Turning to `COc1cc2nc(C)nc(N[C@@H](C)c3ccc(-c4cccc(OCC5CC5)c4)s3)c2cc1OC` (stereo in doubt) [Example 170, N-[1-{5-[3-(cyclopropylmethoxy)phenyl]thiophen-2-yl}ethyl]-6,7-dimethoxy-2-methylquinazolin-4-amine], the values for the inhibition at 20 µM in assay [1], in assay [2] and in assay [3] were 7%, 15% and 45%, respectively.

As to `COc1cc2nc(C)nc(N[C@H](C)c3cccc(-c4ccccc4C(=O)N(C)C)c3)c2cc1OC` [Example 103, 3′-{(1R)-1-[(6,7-dimethoxy-2-methylquinazolin-4-yl)amino]ethyl}-N,N-dimethylbiphenyl-2-carboxamide], the results for the IC50 in assay [1], in assay [2] and in assay [3] were 2.48 µM, 2.74 µM and 1.44 µM, respectively.
